In patent US6160004A, “C-10 carbon-substituted artemisinin-like trioxane compounds having antimalarial, antiproliferative and antitumor activities” (priority 1998, dated 2000):
Values after ≈ are worked out from the molar mass of the structure shown. Read-outs that look alike come from different tables or passages of the source. Blank lines part the entries; values can stand above or below the molecule they belong to.

What was measured:
[1] = test system: murine keratinocyte cell line PE; assay: Growth inhibition of murine keratinocytes (MTT); format: cell-based, murine (SENCAR mice); conditions: 100 nanomolar
Description: To determine the inhibitory effect of the compositions of the present invention on cell proliferation, screening assays were performed on a murine keratinocyte cell line PE. Cell line PE was chosen for its particular sensitivity to the induction of ornithine decarboxylase (ODC) activity by the extensively characterized tumor promoter TPA. […] PE cell culture medium consisted of Eagle's minimal essential medium without calcium chloride (Whittaker Bioproducts, Walkersville, Mass.) supplemented with 8% chelexed fetal calf serum and 1% antibiotic-antimycotic (Gibco BRL) and the addition of CaCl2 to 0.05 mM Ca^++.
MTT [3-(4,5-dimethylthiazol-2-yl)-2,5-diphenyltetraxolium bromide] was purchased from Sigma Chemical Co. (St. Louis, Mo.), and TPA was supplied by L.C. Services (Woburn, Mass.). L-[^14 C]omithine (56 μCi/mol) was from Amersham/Searle Corp. (Arlington Heights, Ill.). Chemical solvents used in all assays of biological activity were of the highest grade commercially available.
Growth Inhibition. Growth curves, shown in FIGS. 1-5, for PE cells treated with calcitriol and the C-10 carbon-substituted dimers 38, 39, 43, 44, 45, 47 and 48, and monomer 27 generated by assay for the reduction of the tetrazolium-based compound MTT, see Charmichael, et al., Cancer Res., 47:936-942 (1987). […] PE cells were seeded at a density of 5,000 cells/well in 50 μL of medium into 96-well microtiter plates. Twelve hours later, the medium was removed, and cells were treated with 100 μL of fresh medium into which the appropriate amount of calcitriol or analog dissolved in dimethyl sulfoxide (DMSO) had been added, with the concentration of DMSO held constant at 0.1%. […] At 24-hour intervals following the initial treatment of the cells with compounds, 0.1 mg (50 μL of a 2 mg/mL solution) of MTT was added to each well. After 4 hours, the MTT was removed and DMSO added to dissolve the blue formazan dye. Using a microtiter plate reader, the A505 was then determined and cell number calculated from blank-subtracted absorbance values.

P. berghei = conditions: cited from earlier work
[2] = Water solubility at pH 7.4; format: physicochemical; conditions: pH 7.4, water
Description: Often, solubility in water is a desirable feature of a new drug candidate. Since organic compounds bearing one or more carboxylic acid groups or phenolic groups are usually water soluble at physiological pH, we have prepared a series of 10-carbon-substituted trioxane carboxylic acids via alkene oxidation and ester saponification. Also, bisphenol (34) was prepared by hydrolysis of the corresponding bis-silyl ether.

[3] = test system: chloroquine-sensitive P. falciparum (NF54); assay: In vitro antimalarial activity ([3H]hypoxanthine incorporation); format: cell-based
malaria = assay: In vivo antimalarial activity; parameters: species or system rodents
[4] = test system: Ehrlich ascites tumor (EAT) cells; conditions: cited from earlier work
Stability (hydrolysis) = format: physicochemical
[5] = In vivo acute toxicity testing; conditions: preliminary
[6] = Plasmodium falciparum, chloroquine-sensitive P. falciparum NF54, in vitro
[7] = sc; read-out: ED50 subcutaneous
[8] = sc; read-out: ED90 subcutaneous

Structure (SMILES): CC1CCC2C(C)C(C#Cc3ccc(C#CC4OC5OC6(C)CCC7C(C)CCC(C4C)C57OO6)cc3)OC3OC4(C)CCC1C32OO4 (stereo not drawn) [Dimer 45, C-10 p-Diethynylbenzene 10-deoxoartemisinin Dimer]
- antiproliferative activity relative to calcitriol [1]: at least as antiproliferative as calcitriol

Structure (SMILES): CC1=CO[C@@H]2O[C@@]3(C)CC[C@H]4[C@H](C)CC[C@@H]1[C@@]24OO3 [olefinic compound III]
- activity against P. berghei-infected mice (P. berghei): inactive

- solubility [2]: 30 mM (≈ 9370 µg/mL)
Structure (SMILES): CC1CCC2C(C)C(C(=O)O)OC3OC4(C)CCC1C32OO4 (stereo not drawn) [Monomer 33]

- IC50 [3, 6]: 4 nM
Structure (SMILES): CC1CCC2C(C)C(c3cn(C)c4ccccc34)OC3OC4(C)CCC1C32OO4 (stereo not drawn) [Monomer 19]

- solubility [2]: < 3 mM
Structure (SMILES): C[C@H]1[C@H](c2ccc(O)cc2O)O[C@@H]2O[C@@]3(C)CC[C@H]4[C@H](C)CC[C@@H]1[C@@]24OO3 [Monomer 13d]

- IC50 [3, 6]: 16 nM
Structure (SMILES): C[C@H]1[C@H](c2cccn2Cc2ccccc2)O[C@@H]2O[C@@]3(C)CC[C@H]4[C@H](C)CC[C@@H]1[C@@]24OO3 [Monomer 16b]

Structure (SMILES): CCN(CC)CCCC(C)Nc1ccnc2cc(Cl)ccc12 (stereo not drawn) [Chloroquine, reference compound]
- ED50 (malaria; sc, read-out: ED50 subcutaneous): 1.8 mg/kg
- ED90 (malaria; sc, read-out: ED90 subcutaneous): 3.1 mg/kg

- solubility [2]: 10 mM (≈ 3910 µg/mL)
Structure (SMILES): CC1CCC2C(C)C(c3cccn3CC(=O)O)OC3OC4(C)CCC1C32OO4 (stereo not drawn) [Monomer 16e]

- IC50 [3, 6]: 9.1 nM
Structure (SMILES): CCOC(=O)Cn1cccc1[C@@H]1O[C@@H]2O[C@@]3(C)CC[C@H]4[C@H](C)CC[C@@H]([C@H]1C)[C@@]24OO3 [Monomer 16d, 10α-(1'-(Ethoxycarbonylmethyl)pyrrol-2'-yl)-10-deoxoartemisinin]

Structure (SMILES): CC1CCC2C(C)C(c3ccc(C(c4ccccc4)c4ccc(C5OC6OC7(C)CCC8C(C)CCC(C5C)C68OO7)n4C)n3C)OC3OC4(C)CCC1C32OO4 (stereo not drawn) [Dimer 48]
- antiproliferative activity relative to calcitriol [1]: at least as antiproliferative as calcitriol

Structure (SMILES): CO[C@H]1O[C@@H]2O[C@@]3(C)CC[C@H]4[C@H](C)CC[C@@H]([C@H]1C)[C@@]24OO3 [Artemether, reference compound]
- in vitro antimalarial potency relative to artemisinin ([3]; P. falciparum NF54): more potent than artemisinin

Structure (SMILES): C[C@@H]1CC[C@H]2[C@@H](C)C(OC3O[C@@H]4O[C@@]5(C)CC[C@H]6[C@H](C)CC[C@@H]([C@H]3C)[C@@]46OO5)O[C@@H]3O[C@@]4(C)CC[C@@H]1[C@]32OO4 (stereo partly drawn) [II-7]
- IC50 ([4]; MTT, growth inhibition): 1400 nM
- cytotoxicity relative to artemisinin (times more cytotoxic) [4]: approximately twenty-two
- cytotoxicity relative to dihydroartemisinin (times more cytotoxic) [4]: sixty
- SD90 (P. berghei; P. berghei-infected mice, parasitemia 90 percent suppressed): 10 mg/kg
- in vivo potency relative to artemisinin (P. berghei; P. berghei-infected mice): less potent than artemisinin

Structure (SMILES): CC1CCC2C(C)C(c3cccn3C)OC3OC4(C)CCC1C32OO4 (stereo not drawn) [Monomer 16a, 10α-(N-methylpyrrol-2'-yl)deoxoartemisinin]
- in vitro antimalarial potency relative to artemisinin ([3]; P. falciparum NF54): more potent than artemisinin
- IC50 [3, 6]: 4.6 nM
- ED50 (malaria; po; read-out: ED50 oral): 4.5 mg/kg
- ED90 (malaria; po; read-out: ED90 oral): 8.5 mg/kg
- ED50 (malaria; [7]): 0.7 mg/kg
- ED90 (malaria; [8]): 1.2 mg/kg
- stability (Stability (hydrolysis)): Hydrolytically stable

- IC50 [3, 6]: 8.6 nM
Structure (SMILES): CCc1ccc([C@@H]2O[C@@H]3O[C@@]4(C)CC[C@H]5[C@H](C)CC[C@@H]([C@H]2C)[C@@]35OO4)o1 [Monomer 17c]

- IC50 [3, 6]: 7.8 nM
Structure (SMILES): COc1cc(OC)c([C@@H]2O[C@@H]3O[C@@]4(C)CC[C@H]5[C@H](C)CC[C@@H]([C@H]2C)[C@@]35OO4)c(OC)c1 [Monomer 14]

Structure (SMILES): CC1CCC2C(C)C(c3ccc(C4OC5OC6(C)CCC7C(C)CCC(C4C)C57OO6)o3)OC3OC4(C)CCC1C32OO4 (stereo not drawn) [Dimer 47]
- antiproliferative activity relative to calcitriol [1]: at least as antiproliferative as calcitriol

Structure (SMILES): CC1CCC2C(C)C(c3ccco3)OC3OC4(C)CCC1C32OO4 (stereo not drawn) [Monomer 17a, 10α-(2'-Furyl)-10-deoxoartemisinin]
- in vitro antimalarial potency relative to artemisinin ([3]; P. falciparum NF54): more potent than artemisinin
- IC50 [3, 6]: 1.4 nM
- ED50 (malaria; po; read-out: ED50 oral): 9.5 mg/kg
- ED90 (malaria; po; read-out: ED90 oral): 24 mg/kg
- ED50 (malaria; [7]): 1.2 mg/kg
- ED90 (malaria; [8]): 2 mg/kg
- stability (Stability (hydrolysis)): Hydrolytically stable
- in vivo acute toxicity testing [5]: relative safety

Structure (SMILES): COc1ccc([C@@H]2O[C@@H]3O[C@@]4(C)CC[C@H]5[C@H](C)CC[C@@H]([C@H]2C)[C@@]35OO4)c(OC)c1 [Monomer 13]
- IC50 ([3]; survey data (preliminary), P. falciparum NF54): 8.9 nM

- IC50 [3, 6]: 10 nM
Structure (SMILES): C[C@H]1[C@H](c2ccc(C(C)(C)C)o2)O[C@@H]2O[C@@]3(C)CC[C@H]4[C@H](C)CC[C@@H]1[C@@]24OO3 [Monomer 17d]

Structure (SMILES): Cc1ccc([C@@H]2O[C@@H]3O[C@@]4(C)CC[C@H]5[C@H](C)CC[C@@H]([C@H]2C)[C@@]35OO4)o1 [Monomer 17b]
- IC50 [3, 6]: 5.2 nM
- ED50 (malaria; po; read-out: ED50 oral): 15.5 mg/kg
- ED90 (malaria; po; read-out: ED90 oral): 43 mg/kg
- ED50 (malaria; [7]): 0.9 mg/kg
- ED90 (malaria; [8]): 2 mg/kg
- stability (Stability (hydrolysis)): Hydrolytically stable
- in vivo acute toxicity testing [5]: relative safety

- IC50 [3, 6]: 4.2 nM
Structure (SMILES): COc1ccc(C2OC3OC4(C)CCC5C(C)CCC(C2C)C35OO4)c(OC)c1 (stereo not drawn) [Monomer 13a, 10α-(1',3'-Dimethoxyphenyl)deoxoartemisininin]
- in vitro antimalarial potency relative to artemisinin ([3]; P. falciparum NF54): more potent than artemisinin

- IC50 [3, 6]: 6.6 nM
Structure (SMILES): C=CCOc1ccc([C@@H]2O[C@@H]3O[C@@]4(C)CC[C@H]5[C@H](C)CC[C@@H]([C@H]2C)[C@@]35OO4)c(OCC=C)c1 [Monomer 13b]

Structure (SMILES): CC1CCC2C(C)C(C#Cc3cccc(C#CC4OC5OC6(C)CCC7C(C)CCC(C4C)C57OO6)c3)OC3OC4(C)CCC1C32OO4 (stereo not drawn) [Dimer 44]
- antiproliferative activity relative to calcitriol [1]: at least as antiproliferative as calcitriol

- IC50 [3, 6]: 9 nM
Structure (SMILES): COc1ccc2cc(C3OC4OC5(C)CCC6C(C)CCC(C3C)C46OO5)c(OC)cc2c1 (stereo not drawn) [Monomer 15, 10α-(2',7'-dimethoxynaphth-3'-yl)deoxoartemisinin]

Structure (SMILES): COc1cc(OC)c(C2OC3OC4(C)CCC5C(C)CCC(C2C)C35OO4)cc1C1OC2OC3(C)CCC4C(C)CCC(C1C)C24OO3 (stereo not drawn) [Dimer 43]
- antiproliferative activity relative to calcitriol [1]: at least as antiproliferative as calcitriol

- IC50 [3, 6]: 5.1 nM
Structure (SMILES): C[C@H]1[C@H](c2cccs2)O[C@@H]2O[C@@]3(C)CC[C@H]4[C@H](C)CC[C@@H]1[C@@]24OO3 [Monomer 18]
